Assay results reported in the METLIN SMRT retention time set (Domingo-Almenara et al. 2019).

Assay: gradient 5% acetonitrile 3 min, to 50% in 2 min, to 85% in 15 min, held 3 min, 100 µL/min
Conditions: column: Zorbax Extend-C18 2.1 x 50 mm; eluents: water / acetonitrile, 0.1% formic acid
Outline: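 Using water and acetonitrile that each contained 0.1% formic acid, mixtures of ~100 pure standards were separated at 100 μL/min on a Zorbax Extend-C18 column (2.1 × 50 mm, 1.8 μm). The HPLC fed a quadrupole time-of-flight mass spectrometer working in positive and negative ionization mode, with dead and dwell volumes of 40 μL and 900 μL. Data were acquired over 3 months. Retention time was read from computationally picked adduct peaks after manual inspection of each.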

Which RP-LC retention time does the source give for `CC1(O)CCOC2(CCN(Cc3cn[nH]c3-c3ccccc3)CC2)C1` (stereo not given) here?
The RP-LC retention time was 584 s.

With `CC(CCc1ccccc1)NC(=O)CCC(=O)N1CCCn2nc(-c3cccn3C)cc21` (stereo not given) as the compound, how does the RP-LC retention time read?
The RP-LC retention time was 842 s.

For `Cc1ccc(C(=O)N2CCN(c3nc(CN4CCC(C)CC4)cs3)CC2)cc1F`, which RP-LC retention time is on record?
Its RP-LC retention time is 688 s.

For `COC(=O)C(CCSC)NC(=O)c1cc2c(n(-c3ccc(Cl)cc3)c1=O)CC(C)(C)CC2=O` (stereo not given), which RP-LC retention time is on record?
Its RP-LC retention time is 1040 s.

With `Cc1ccc(S(=O)(=O)Cc2cccc(-c3nc(-c4cccc(-c5ccnn5C)c4)no3)c2)cc1` as the compound, how does the RP-LC retention time read?
The RP-LC retention time was 1140 s.

Which RP-LC retention time does the source give for `CN1C(=O)c2ccccc2Oc2ccc(C(=O)N3CCOCC3)cc21` here?
The RP-LC retention time was 675 s.

With `Cc1cc2c(cc1S(=O)(=O)N1CCCC1C(=O)N1CCN(c3ccccc3)CC1)OC(C)C(=O)N2` (stereo not given) as the compound, how does the RP-LC retention time read?
The RP-LC retention time was 814 s.

With `Cc1cc(C(=O)Nc2nc3c(F)cccc3s2)no1` as the compound, how does the RP-LC retention time read?
The RP-LC retention time was 780 s.

With `CC1CCC(NC(=O)C(Cc2c[nH]c3ccccc23)NC(=O)C2CCC(C)CC2)CC1` (stereo not given) as the compound, how does the RP-LC retention time read?
Its RP-LC retention time is 1100 s.

For `COc1ccc(NC(=O)C2CCN(S(=O)(=O)c3ccc4[nH]c5c(c4c3)CCCCC5)CC2)cc1`, which RP-LC retention time is on record?
The RP-LC retention time was 1040 s.

For `CCOc1ccccc1CNC(=O)Cn1c(CC)nc2onc(C)c2c1=O`, which RP-LC retention time is on record?
Its RP-LC retention time is 865 s.

For `Cc1c(F)cccc1NC(=O)Nc1ccc2nnc(C)n2c1`, which RP-LC retention time is on record?
Its RP-LC retention time is 718 s.

Which RP-LC retention time does the source give for `O=C(CCC1CCCC1)Nc1cccc(-c2nnc3n2CCCC3)c1` here?
Its RP-LC retention time is 762 s.

For `CCS(=O)(=O)Nc1cccc(C(=C2CCCCC2)c2cnc[nH]2)c1`, which RP-LC retention time is on record?
The RP-LC retention time was 738 s.

With `COc1ccc(CN(Cc2ccccc2)Cc2cc(=O)n3cc(C)ccc3n2)cc1OC` as the compound, how does the RP-LC retention time read?
The RP-LC retention time was 616 s.

With `Cc1ccc(CN2CC(=O)N(c3cccc(Cl)c3)[C@@H]3CS(=O)(=O)C[C@@H]32)cc1` as the compound, how does the RP-LC retention time read?
Its RP-LC retention time is 917 s.

For `CCc1nnc(-c2ccc3ccn(CC(=O)NCCc4ccc(OC)c(OC)c4)c3c2)o1`, which RP-LC retention time is on record?
The RP-LC retention time was 760 s.

With `COc1ccc(-c2nnc(-c3ccc(C)c(S(=O)(=O)NCc4cccnc4)c3)o2)cc1OC` as the compound, how does the RP-LC retention time read?
The RP-LC retention time was 660 s.

With `CN1CCN(C(=O)C2CCCN(c3ncccc3-c3noc(C4CCC4)n3)C2)CC1` (stereo not given) as the compound, how does the RP-LC retention time read?
Its RP-LC retention time is 623 s.

Which RP-LC retention time does the source give for `CCOc1ccc(/C=C/C(=O)Nc2nc(-c3ccc4c(c3)NC(=O)C(C)O4)cs2)cc1OC` (stereo not given) here?
The RP-LC retention time was 927 s.

For `COC(=O)C1=C(N)Oc2cc(C)n(CCN(C)C)c(=O)c2C1c1ccccc1Cl` (stereo not given), which RP-LC retention time is on record?
The RP-LC retention time was 624 s.

For `O=C(Cc1ccsc1)N1CCC2(CC1)N=C(c1cccc(Br)c1)NO2`, which RP-LC retention time is on record?
Its RP-LC retention time is 889 s.

Which RP-LC retention time does the source give for `COc1ccc2[nH]cc(CCNC(=O)CC3CCN(S(=O)(=O)c4ccc(Cl)s4)CC3)c2c1` here?
The RP-LC retention time was 905 s.

With `Cc1ccc(C)c(-c2cc3c(=O)n(Cc4nc(-c5ccc6c(c5)OCO6)no4)ncn3n2)c1` as the compound, how does the RP-LC retention time read?
Its RP-LC retention time is 683 s.

With `O=C(NCc1ccc(Br)cc1)c1ccc2ncnc(N3CCCC3)c2c1` as the compound, how does the RP-LC retention time read?
Its RP-LC retention time is 679 s.

Which RP-LC retention time does the source give for `CCSc1nnc(-c2nn(C)c3c2CN(S(=O)(=O)c2cc(Cl)ccc2OC)CC3)n1CC` here?
Its RP-LC retention time is 975 s.

For `CC(=O)c1cccc(NC(=O)CN2CCCN(Cc3cccc(F)c3)S2(=O)=O)c1`, which RP-LC retention time is on record?
The RP-LC retention time was 880 s.

For `Cc1ccccc1NS(=O)(=O)c1cc2n(c1)CCCNC2=O`, which RP-LC retention time is on record?
The RP-LC retention time was 646 s.

Which RP-LC retention time does the source give for `CNS(=O)(=O)c1c[nH]c(=O)[nH]c1=O` here?
The RP-LC retention time was 624 s.

Which RP-LC retention time does the source give for `CN(CCc1noc(COc2cccc(C(F)(F)F)c2)n1)C(=O)c1cccs1` here?
The RP-LC retention time was 941 s.

Which RP-LC retention time does the source give for `CCOc1ccc(CNC(=O)C2(c3ccc(NC(C)=O)cc3)CCCCC2)cc1` here?
Its RP-LC retention time is 866 s.

For `CC(C)C(=O)Nc1cc(-c2ccccc2)nn(C(C)C(=O)Nc2ccccc2Cl)c1=O` (stereo not given), which RP-LC retention time is on record?
Its RP-LC retention time is 1170 s.

For `CC(C)NC(=O)C1CCCN(c2nc3ncn(CC(=O)NC4CCc5ccccc54)c(=O)c3s2)C1` (stereo not given), which RP-LC retention time is on record?
The RP-LC retention time was 709 s.

Which RP-LC retention time does the source give for `COc1ccc(-c2csc(SCc3ccc(C(=O)N4CCOCC4)o3)n2)cc1OC` here?
The RP-LC retention time was 783 s.

With `CCNC(=O)C1CCCN(c2nc3ncn(CC(=O)Nc4cc(Cl)ccc4C)c(=O)c3s2)C1` (stereo not given) as the compound, how does the RP-LC retention time read?
Its RP-LC retention time is 741 s.
